{
  "source": "patent US20060111556A1",
  "about": "“Preventives/remedies for neurodegenerative diseases” (priority 2002, published 2006)",
  "key": {"[1]": {"system": "neuronal cell death inducible putative kinase (NIPK) gene", "assay": "NIPK gene expression analysis by oligonucleotide microarray after endoplasmic reticulum stress", "assay_type": "cell-based", "details": "rat primary nerve cells, medial expression level taken as 1", "description": "Rat primary nerve cells prepared from CD rat (Charles River Japan, Inc.) of TP-17 were suspended in B27-supplemented Neurobasal medium (NB medium: GIBCO) charged in a type I collagen-coated 24-well plate and then plated at 250,000 cells/well, followed by culturing for 3 days.\n(i) Tunicamycin (Tnc) was added to the culture cells above in a final concentration of 100 nM, (ii) thapsigargin (Thap) was added to the culture cells above in a final concentration of 2 nM, or (iii) the culture cells described above were cultured in glucose-free B27-suplemented DMEM medium with 2 medium changes and then 2-deoxyglucose (2DG) was added in 3 mM. The total RNA was extracted from the cells 4, 8 and 24 hours, respectively, in accordance with the operating manual using RNeasy Mini kit (Qiagen). Cells added to the respective media (drug-free cells) in place of the drugs above (Tnc, Thap and 2DG) were used for control. Using the oligonucleotide microarray (Rat Genome U34A; Affymetrix Corp.), gene expression analysis was conducted on these materials.\nThe experimental method was carried out in accordance with the expression analysis technical manual of Affymetrix Corp. Gene expression profiles were compared between the cells stimulated with each drug and the cells with no drug. […] (TABLE 1)."}, "NIPK gene": {"system": "NIPK gene", "assay": "NIPK gene expression analysis by oligonucleotide microarray after β amyloid stimulation", "assay_type": "cell-based", "details": "rat primary nerve cells, β amyloid 25 μM, 24 hours after stimulation, medial expression level taken as 1", "description": "In order to examine if […] stimulation would affect the expression of NIPK gene with enhanced expression by endoplasmic reticulum stress, gene expression analysis was performed as in EXAMPLE 1, using cells stimulated with β amyloid.\nRat primary nerve cells prepared as in EXAMPLE 1 were suspended in N2-supplemented DMEM medium (GIBCO) and then plated at 250,000 cells/well, followed by incubation for 4 days. After the incubation, β amyloid suspended in the medium above in a final concentration of 25 μM was added to the medium. As in EXAMPLE 1, the total RNA was extracted from the cells 4, 8 and 24 hours after the addition and provided for gene analysis. For control, the cells to which the medium described above was added instead of β amyloid were used. Expression of NIPK was more enhanced in the cells stimulated with β, when compared to control (TABLE 2)."}, "Akt1": {"biological_target": "T1, Akt1 (Homo sapiens, UniProt P31749)", "T1 construct": "expressed in transfected cells; host or cells: COS7 cells", "T1 sequence (P31749 whole entry)": "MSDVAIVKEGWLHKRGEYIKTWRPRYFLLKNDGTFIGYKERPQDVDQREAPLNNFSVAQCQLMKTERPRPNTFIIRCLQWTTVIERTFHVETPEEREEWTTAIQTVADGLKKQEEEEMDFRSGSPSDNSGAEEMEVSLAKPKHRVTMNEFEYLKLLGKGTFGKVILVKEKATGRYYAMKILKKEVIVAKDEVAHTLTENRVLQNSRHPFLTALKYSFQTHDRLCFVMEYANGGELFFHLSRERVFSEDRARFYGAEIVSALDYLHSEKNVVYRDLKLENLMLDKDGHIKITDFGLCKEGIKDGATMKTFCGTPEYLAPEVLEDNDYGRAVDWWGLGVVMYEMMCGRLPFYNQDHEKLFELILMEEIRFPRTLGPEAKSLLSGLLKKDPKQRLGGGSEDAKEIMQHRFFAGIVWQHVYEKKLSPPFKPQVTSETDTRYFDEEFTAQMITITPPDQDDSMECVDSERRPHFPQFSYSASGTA", "assay": "Immunoprecipitation with anti-V5 antibody and western blotting with anti-Akt1 antibody", "assay_type": "binding", "details": "V5-tagged NIPK and Akt1 co-expressed in COS7 cells; control GFP and Akt1", "description": "Using human NIPK cloned into pCDNA3.1-/V5-His TOPO (Invitrogen) vector (EXAMPLE 3) as a template, PCR was carried out with synthetic primers (SEQ ID NO: 3 and SEQ ID NO: 23) and Pfu turbo (Stratagene) as an enzyme under the conditions (1)-(3) to obtain the specific PCR product. • (1) 94° C. for 5 minutes • (2) 94° C. for 30 seconds—60° C. for 30 seconds—72° C. for 1 minute, 25 time • (3) 72° C. for 5 minutes\nThe PCR product obtained was cloned into pCDNA3.1-/V5-His TOPO (Invitrogen) to transfect Escherichia coli DH5α. The resulting colony was cultured in LB medium to recover V5-tagged human NIPK gene expression vector.\nAkt1 gene expression vector was prepared by the following procedures. Using Quick-clone human whole brain cDNA (Clontech) as a template, PCR was carried out with synthetic primers (SEQ ID NO: 24 and SEQ ID NO: 25) and Pfu turbo (Stratagene) as an enzyme under the conditions (1)-(3) below to obtain the specific PCR product. • (1) 94° C. for 5 minutes • (2) 94° C. for 30 seconds—58° C. for 30 seconds—72° C. for 2 minutes, 35 times • (3) 72° C. for 5 minutes […]"}},
  "data": [
    {"molecule": "O=CC[C@@H](O)[C@H](O)[C@H](O)CO", "note": "[2DG, 2-deoxyglucose]", "values": [
      {"measurement": "Gene Expression Level", "setting": "[1]; glucose-free medium, 2-deoxyglucose 3 mM, 4 hours after addition", "result": 0.72},
      {"measurement": "Gene Expression Level", "setting": "[1]; glucose-free medium, 2-deoxyglucose 3 mM, 8 hours after addition", "result": 1.79},
      {"measurement": "Gene Expression Level", "setting": "[1]; glucose-free medium, 2-deoxyglucose 3 mM, 24 hours after addition", "result": 2.45}
    ]},
    {"molecule": "C/C=C(/C)C(=O)O[C@H]1C(C)=C2[C@H]([C@@H]1OC(=O)CCCCCCC)[C@@](C)(OC(C)=O)C[C@H](OC(=O)CCC)[C@@]1(O)[C@H]2OC(=O)[C@@]1(C)O", "note": "[Thap, thapsigargin]", "values": [
      {"measurement": "Gene Expression Level", "setting": "[1]; thapsigargin 2 nM, 4 hours after stimulation", "result": 0.93},
      {"measurement": "Gene Expression Level", "setting": "[1]; thapsigargin 2 nM, 8 hours after stimulation", "result": 2.70},
      {"measurement": "Gene Expression Level", "setting": "[1]; thapsigargin 2 nM, 24 hours after stimulation", "result": 1.64}
    ]},
    {"molecule": "Tunicamycin [Tnc]", "values": [
      {"measurement": "Gene Expression Level", "setting": "[1]; tunicamycin 100 nM, 4 hours after stimulation", "result": 0.41},
      {"measurement": "Gene Expression Level", "setting": "[1]; tunicamycin 100 nM, 8 hours after stimulation", "result": 1.64},
      {"measurement": "Gene Expression Level", "setting": "[1]; tunicamycin 100 nM, 24 hours after stimulation", "result": 1.32}
    ]},
    {"molecule": "β amyloid", "values": [
      {"measurement": "Gene Expression Level", "setting": "NIPK gene", "result": 0.34}
    ]},
    {"molecule": "NIPK: human neuronal cell death inducible putative kinase, amino acid sequence SEQ ID NO: 1; V5-tagged, expressed in COS7 cells (protein, V5 tag; Homo sapience, V5-tagged, expressed in COS7 cells) MRATPLAAPAGSLSRKKRLELDDNLDTERPVQKRARSGPQPRLPPCLLPLSPPTAPDRATAVATASRLGPYVLLEPEEGGRAYQALHCPTGTEYTCKVYPVQEALAVLEPYARLPPHKHVARPTEVLAGTQLLYAFFTRTHGDMHSLVRSRHRIPEPEAAVLFRQMATALAHCHQHGLVLRDLKLCRFVFADRERKKLVLENLEDSCVLTGPDDSLWDKHACPAYVGPEILSSRASYSGKAADVWSLGVALFTMLAGHYPFQDSEPVLLFGKIRRGAYALPAGLSAPARCLVRCLLRREPAERLTATGILLHPWLRQDPMPLAPTRSHLWEAAQVVPDGLGLDEAREEEGDREVVLYG", "values": [
      {"measurement": "binding to Akt1 within the cells", "setting": "Akt1", "result": "bound to Akt1"}
    ]}
  ]
}
